The results in this text go back to PubChem BioAssay (NCI).

Test systems include KM12 colon; UACC-62 melanoma; DU-145 prostate; HL-60(TB) leukemia; BT-549 breast; HCC-2998 colon; NCI-H23 lung; IGROV1 ovarian; LOX IMVI melanoma; NCI/ADR-RES ovarian.
Common to all, as to experiment: growth of human tumour cells (NCI), 48 h

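Test compounds were applied to cells in 96-well plates for 48 hours at 5 doses. Abbreviation: GI50, concentration required for 50% inhibition of growth. TGI: total growth inhibition.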

`COc1ccc(OC)c2c(=S)c3ccccc3[nH]c12`: the TGI was more than 100 µM in the experiment on KM12 colon; more than 100 µM in the experiment with UACC-62 melanoma; more than 100 µM in the experiment on DU-145 prostate; 57.6 µM in the experiment on HL-60(TB) leukemia; more than 100 µM in the experiment on BT-549 breast; more than 100 µM with HCC-2998 colon. Moreover, the TGI with NCI-H23 lung, in the experiment with IGROV1 ovarian, in the experiment with LOX IMVI melanoma and in the experiment on NCI/ADR-RES ovarian was more than 100 µM each time.
On to `OCc1ccc(N(CCN2CCCC2)Cc2ccc(F)cc2)cc1Cl`, for which the GI50 in the experiment on KM12 colon was 17.4 µM; in the experiment with UACC-62 melanoma, 13.9 µM; with DU-145 prostate, 17.1 µM; with HL-60(TB) leukemia, 25.1 µM; with BT-549 breast it was 24.8 µM; in the experiment on HCC-2998 colon, 10.7 µM. For the same molecule, the GI50 with NCI-H23 lung was 32.4 µM; with IGROV1 ovarian, 3.27 µM; in the experiment on LOX IMVI melanoma it was 15.6 µM; in the experiment on NCI/ADR-RES ovarian it was 18.2 µM. The TGI with KM12 colon is 34.9 µM; in the experiment on UACC-62 melanoma it was 29.1 µM; with DU-145 prostate, 39.7 µM; in the experiment with HL-60(TB) leukemia, 64.8 µM; in the experiment on BT-549 breast, 86.8 µM; with HCC-2998 colon, 23.8 µM. Further, the TGI was more than 100 µM with NCI-H23 lung, 16.8 µM with IGROV1 ovarian, 31.5 µM in the experiment on LOX IMVI melanoma and 44.3 µM with NCI/ADR-RES ovarian.
As for `COC1=C(Br)C(=O)C2=C(C1=O)C1C3=C(C(=O)C=CC3=O)C2c2ccccc21` (stereo not given), the GI50 in the experiment on KM12 colon was 12.4 µM; in the experiment on UACC-62 melanoma, 11.2 µM; in the experiment with DU-145 prostate, 21.4 µM; in the experiment on BT-549 breast, 16.8 µM; with HCC-2998 colon it was 0.565 µM; in the experiment with NCI-H23 lung, 17.3 µM. For the same molecule, the figures for the GI50 in the experiment on IGROV1 ovarian, with LOX IMVI melanoma and in the experiment on NCI/ADR-RES ovarian were 9.4 µM, 4.91 µM and 18.8 µM, respectively. Also, the TGI amounted to 32.1 µM in the experiment with KM12 colon; 27.8 µM in the experiment on UACC-62 melanoma; 53.8 µM in the experiment with DU-145 prostate; 38.3 µM in the experiment on BT-549 breast; 19.5 µM in the experiment on HCC-2998 colon; 48.5 µM in the experiment with NCI-H23 lung. Also, the TGI in the experiment on IGROV1 ovarian came out at 45.1 µM; with LOX IMVI melanoma it was 26 µM; in the experiment with NCI/ADR-RES ovarian, 61.5 µM.
In the case of `Cc1ccc(Sc2sc(-c3ccccc3)nc2[P+](c2ccccc2)(c2ccccc2)c2ccccc2)cc1`, the GI50 is 0.314 µM in the experiment with KM12 colon; 0.317 µM with UACC-62 melanoma; 0.379 µM in the experiment on DU-145 prostate; 0.194 µM in the experiment with HL-60(TB) leukemia; 0.32 µM with BT-549 breast; 0.453 µM with HCC-2998 colon. In addition, the GI50 was 0.27 µM in the experiment with NCI-H23 lung and 0.276 µM in the experiment with LOX IMVI melanoma. For the same molecule, the TGI came to 1.09 µM in the experiment on KM12 colon; 1.25 µM with UACC-62 melanoma; 1.37 µM in the experiment with DU-145 prostate; 0.521 µM in the experiment with HL-60(TB) leukemia; 1.18 µM in the experiment on BT-549 breast; 1.63 µM with HCC-2998 colon. For the same molecule, the TGI was 0.811 µM in the experiment on NCI-H23 lung and 0.901 µM in the experiment on LOX IMVI melanoma.
As to `Clc1ccc(Nc2ccnc(NCCCNc3ccnc4cc(Cl)ccc34)n2)cc1`, the GI50 in the experiment on DU-145 prostate is 1.86 µM; in the experiment with BT-549 breast, 1.74 µM; with NCI-H23 lung, 1.79 µM; in the experiment with NCI/ADR-RES ovarian, 1.76 µM. The TGI in the experiment on DU-145 prostate stood at 3.35 µM; in the experiment on BT-549 breast it was 3.67 µM; in the experiment on NCI-H23 lung, 3.53 µM; with NCI/ADR-RES ovarian it was 3.38 µM.
Consider `COc1cc(/C=C2\C(=O)Nc3cccc(Cl)c32)cc(OC)c1OC`, for which the GI50 was more than 100 µM with KM12 colon; more than 100 µM in the experiment on UACC-62 melanoma; 11 µM in the experiment with HL-60(TB) leukemia; more than 100 µM in the experiment on BT-549 breast; more than 100 µM with HCC-2998 colon; more than 100 µM in the experiment on NCI-H23 lung. Further, the GI50 with IGROV1 ovarian, in the experiment on LOX IMVI melanoma and in the experiment on NCI/ADR-RES ovarian was more than 100 µM in each case. Further, the TGI in the experiment on KM12 colon, in the experiment with UACC-62 melanoma, in the experiment with HL-60(TB) leukemia, with BT-549 breast, in the experiment with HCC-2998 colon and in the experiment with NCI-H23 lung was more than 100 µM each time. Moreover, the TGI with IGROV1 ovarian, with LOX IMVI melanoma and in the experiment with NCI/ADR-RES ovarian was more than 100 µM in each case.
Take `C=C1C(=O)OC2CC(C)C3C=CC(=O)C3CC12` (stereo not given): the TGI with KM12 colon came out at 18.9 µM; with UACC-62 melanoma, 3.74 µM; with DU-145 prostate, 21.7 µM; in the experiment on HL-60(TB) leukemia it was 4.95 µM; in the experiment on BT-549 breast it was 9.94 µM; in the experiment on HCC-2998 colon, 16.5 µM. Further, the figures for the TGI with NCI-H23 lung, with IGROV1 ovarian and with LOX IMVI melanoma were 4.03 µM, 13.2 µM and 2.69 µM, respectively.
`C=CC1=C(C)C2=NC1=CC1=NC(=CC3=C(C)C4=C(O)C(C(=O)OC)C(=C5NC(=C2)C(C)C5CCC(=O)OC)C4=N3)C(CC)=C1C` (stereo not given): the TGI in the experiment with KM12 colon, with UACC-62 melanoma, in the experiment on DU-145 prostate, in the experiment on HL-60(TB) leukemia, with BT-549 breast and in the experiment with HCC-2998 colon was more than 100 µM in each case. Moreover, the TGI in the experiment on NCI-H23 lung, in the experiment on IGROV1 ovarian and with LOX IMVI melanoma was more than 100 µM in each case.
`COc1ccccc1-c1cc(=O)c2ccc(OC)c(OC)c2o1`: the TGI in the experiment on UACC-62 melanoma, in the experiment with DU-145 prostate, in the experiment with HL-60(TB) leukemia, in the experiment on BT-549 breast, in the experiment with HCC-2998 colon and with NCI-H23 lung was more than 100 µM each time. The TGI with IGROV1 ovarian, with LOX IMVI melanoma and with NCI/ADR-RES ovarian was more than 100 µM in each case.
As for `COc1ccc(N(/C=C/C(=O)C(F)(F)F)CC(=O)c2ccc(Cl)c(Cl)c2)cc1`, the GI50 in the experiment with KM12 colon is 11.6 µM; in the experiment with UACC-62 melanoma, 8.75 µM; with DU-145 prostate, 11.3 µM; in the experiment on BT-549 breast, 7.57 µM; in the experiment with HCC-2998 colon, 18.5 µM; with NCI-H23 lung, 17.5 µM. In addition, the GI50 in the experiment on IGROV1 ovarian is 22.8 µM; in the experiment with LOX IMVI melanoma, 11.8 µM; in the experiment with NCI/ADR-RES ovarian, 19 µM. Also, the TGI was found to be 37.3 µM in the experiment on KM12 colon; 22.8 µM with UACC-62 melanoma; 24.6 µM with DU-145 prostate; 22 µM in the experiment with BT-549 breast; 32.5 µM in the experiment with HCC-2998 colon; 32.3 µM in the experiment with NCI-H23 lung. The TGI in the experiment with IGROV1 ovarian turned out to be 60.9 µM; with LOX IMVI melanoma it was 27.4 µM; with NCI/ADR-RES ovarian, 39.3 µM.
